This note sets out measurements from patent US20110213033A1, “SKIN CONDITIONER” (Kabushiki Kaisha Soken, priority 1998, published 2011).

The subject of experiment [1] is normal human skin fibroblasts. Nature of the experiment: Collagen production recovery test on damaged fibroblasts. The format is cell-based. The note with it: hypoxanthine/xanthine oxidase damage; samples at final concentration 3.3%, 24 hours at 37° C.; FIG. 1. As for the experimental part: A collagen production recovery test was conducted on damaged fibroblasts. Six to eight subcultures of normal human skin fibroblasts (Physicochemical Research Institute, Cell Development Bank BIRGB) were used in the test. […] Measurement of collagen production ability of a confluent in the steady state was performed according to the method of Webster, et al. based on the uptake of ^3H-proline into the produced collagen. […] Since proline is a main component of the amino acids that compose collagen, fibroblasts are cultured in a medium containing ^3H-proline, and the ^3H activity taken up into collagen in the cells is measured. Units are in d.p.m., and represent the number of […] of radioactivity released per minute.

The subject of a further experiment is atopic skin. As to the kind of experiment: 2-hour moisture retention duration test on atopic skin. The format is in vivo, human. The note with it: FIGS. 21 through 31. How it is done:
A 2-hour moisture retention duration test was performed on atopic skin.
Panelists: 7 persons with atopic skin
Test Method: Same as Test Example 2
Measurement Method: Same as Text Example 2
Test Apparatus: Same as Test Example 2

SMILES strings stand for the structures.

Consider `N=C(N)NCCC[C@H](N)C(=O)O` [L-arginine], for which the “collagen production ability of fibroblasts damaged by active oxygen (3H-proline uptake into collagen)” value in experiment [1] is “significantly improved”. Further, the “moisture retention duration (30 to 120 minutes after application)” value in the experiment with atopic skin is given as “continuation of moisture retention was observed”.

Regarding `NCCO` [ethanolamine], the “collagen production ability of fibroblasts damaged by active oxygen (3H-proline uptake into collagen)” value in experiment [1] is “significantly improved”. Further, the “moisture retention duration (30 to 120 minutes after application)” value in the experiment on atopic skin is “continuation of moisture retention was observed”.
